Assay results published in patent publication US10821115B2, “Compounds that inhibit Mcl-1 protein” (priority 2017, dated 2020).
Like-named read-outs stand apart in the source and are kept apart here.

Legend:
[1] = target: recombinant human Mcl-1 (residues 171-327) / Bim interaction (Homo sapiens (Human), UniProt Q07820); assay: biochemical; assay type: binding; conditions: read-out: Mcl-1 HTRF IC50
[2] = system: human multiple myeloma cell line, OPM-2; assay: Cell viability assay (OPM-2 10 FBS), CellTiter-Glo; assay type: cell-based
In short: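 IC50 values come from 4-parameter logistic fits of luminescence signals reflecting cell viability. Treatment lasted 16 h at 37 °C in complete medium with 10% FBS, starting from 3000 cells/well.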

[3] = 0.1 nM Mcl-1(171-327), 0.05 nM biotin-Bim (51-76)
[4] = Homo sapiens, OPM-2, 16 h, read-out: OPM-2 10% FBS IC50 IP, OPM-2 cells, 10% FBS, 16 h incubation
[5] = TR-FRET, Mcl-1(171-327) / biotin-Bim (51-76)
[6] = read-out: OPM-2 10% FBS IC50 IP, OPM-2 cells, 10% FBS, 16 h, CellTiter-Glo
[7] = Homo sapiens, OPM-2, 16 h, read-out: OPM-2 10% FBS IC50 IP, OPM-2 cells, 10% FBS, 16 h, CellTiter-Glo

Sequence of recombinant human Mcl-1 (residues 171-327) / Bim interaction (Q07820 171-327): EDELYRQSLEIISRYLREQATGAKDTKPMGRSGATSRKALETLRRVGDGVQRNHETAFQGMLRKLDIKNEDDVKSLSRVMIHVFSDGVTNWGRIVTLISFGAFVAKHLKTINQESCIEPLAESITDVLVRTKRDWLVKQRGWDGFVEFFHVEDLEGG

Compound | IC50 [1, 3] [nM] | IC50 [2, 4] [nM] | IC50 [1, 5] [nM] | further results
CO[C@@]1(CN2CC3(C2)CN(C)C(=O)O3)/C=C/C[C@H](C)[C@@H](C)S(=O)(=O)NC(=O)c2ccc3c(c2)N(C[C@@H]2CC[C@H]21)C[C@@]1(CCCc2cc(Cl)ccc21)CO3 [Example 291, (1S,3′R,6′R,7′S,8′E,11′S,12′R)-6-chloro-7′-methoxy-11′,12′-dimethyl-7′-((7-methyl-6-oxo-5-oxa-2,7-diazaspiro[3.4]oct-2-yl)methyl)-3,4-dihydro-2H,15′H-spiro[naphthalene-1,22′-[20]oxa[13]thia[1,14]diazatetracyclo [14.7.2.0~3,6~.0~19,24~]pentacosa[8,16,18,24]tetraen]-15′-one 13′,13′-dioxide] | 0.083 | 104 |  | 
C[C@@H]1[C@@H](C)C/C=C/[C@](CN2CCN3CCOC[C@@H]3C2)(OCC(F)(F)F)[C@@H]2CC[C@H]2CN2C[C@@]3(CCCc4cc(Cl)ccc43)COc3ccc(cc32)C(=O)NS1(=O)=O [Example 49, (1S,3′R,6′R,7′S,8′E,11′S,12′R)-6-chloro-7′-((9aS)-hexahydropyrazino[2,1-c][1,4]oxazin-8(1H)-ylmethyl)-11′,12′-dimethyl-7′-(2,2,2-trifluoroethoxy)-3,4-dihydro-2H,15′H-spiro[naphthalene-1,22′-[20]oxa[13]thia[1,14]diazatetracyclo [14.7.2.0~3,6~.0~19,24~]pentacosa[8,16,18,24]tetraen]-15′-one 13′,13′-dioxide] | 0.087 | 185 |  | 
CO[C@@]1(C)/C=C/C[C@H](C)[C@@H](CCN2CCOCC2)S(=O)(=O)NC(=O)c2ccc3c(c2)N(C[C@@H]2CC[C@H]21)C[C@@]1(CCCc2cc(Cl)ccc21)CO3 (single isomer, unassigned) [Example 100599] |  |  | 1.15 | IC50 [2, 6]: 1140 nM
CO[C@]1(CN2CCN(C(C)C)[C@@H](C)C2)/C=C/C[C@H](C)[C@@H](C)S(=O)(=O)NC(=O)c2ccc3c(c2)N(C[C@@H]2CC[C@H]21)C[C@@]1(CCCc2cc(Cl)ccc21)CO3 [Example 337, (1S,3′R,6′R,7′R,8′E,11′S,12′R)-6-chloro-7′-methoxy-11′,12′-dimethyl-7′-(((3S)-3-methyl-4-(1-methylethyl)-1-piperazinyl)methyl)-3,4-dihydro-2H,15′H-spiro[naphthalene-1,22′-[20]oxa[13]thia[1′14]diazatetracyclo [14.7.2.0~3,6~.0~19,24~]pentacosa[8,16,18,24]tetraen]-15′-one 13′,13′-dioxide] | 0.09 | 59 |  | 
(1S,3′R,6′R,7′S,8′E,11′S,12′R)-6-chloro-7′-(2-methoxyethoxy)-11′,12′-dimethyl-7′-((9aR)-octahydro-2H-pyrido[1,2-a]pyrazin-2-ylmethyl)-3,4-dihydro-2H, 15′H-spiro[naphthalene-1,22′-[20]oxa[13]thia[1,14]diazatetracyclo[14.7.2.0-3,6˜.0˜19,24˜]pentacosa[8,16,18,24]tetraen]-15′-one 13′,13′-dioxide [Example 151] | 0.843 |  |  | IC50 ([2]; read-out: OPM-2 10% FBS IC50 IP, OPM-2 cells, 10% FBS, 16 h incubation): 462 nM
CO[C@]1(CN2C[C@H]3CN(C)C[C@H]3C2)/C=C/C[C@H](C)[C@@H](C)S(=O)(=O)NC(=O)c2ccc3c(c2)N(C[C@@H]2CC[C@H]21)C[C@@]1(CCCc2cc(Cl)ccc21)CO3 [Example 82] | 0.394 | 520 |  | 
CO[C@@]1(CN2CCN(c3ncccn3)CC2)/C=C/C[C@H](C)[C@@H](C)S(=O)(=O)NC(=O)c2ccc3c(c2)N(C[C@@H]2CC[C@H]21)C[C@@]1(CCCc2cc(Cl)ccc21)CO3 [Example 256, (1S,3′R,6′R,7′S,8′E,11′S,12′R)-6-chloro-7′-methoxy-11′,12′-dimethyl-7′-((4-(2-pyrimidinyl)-1-piperazinyl)methyl)-3,4-dihydro-2H,15′H-spiro[naphthalene-1,22′-[20]oxa[13]thia[1,14]diazatetracyclo [14.7.2.0~3,6~.0~19,24~]pentacosa[8,16,18,24]tetraen]-15′-one 13′,13′-dioxide] | 0.433 | 1640 |  | 
C[C@@H]1[C@@H](C)CCC[C@@](O)(CC[S@@+](C)[O-])[C@@H]2CC[C@H]2CN2C[C@@]3(CCCc4cc(Cl)ccc43)COc3ccc(cc32)C(=O)NS1(=O)=O [Example 100329, (1S,3′R,6′R,7′R,11′S,12′R)-6-chloro-7′-hydroxy-11′,12′-dimethyl-7′-(2-((R)-methylsulfinyl)ethyl)-3,4-dihydro-2H,15′H-spiro[naphthalene-1,22′-[20]oxa[13]thia[1,14]diazatetracyclo [14.7.2.0~3,6~.0~19,24~]pentacosa[16,18,24]trien]-15′-one 13′,13′-dioxide] |  |  | 5.02 | IC50 [2, 7]: 1560 nM
C[C@@H]1[C@@H](C)CCC[C@@](O)(CC(=O)N2CCCC2)[C@@H]2CC[C@H]2CN2C[C@@]3(CCCc4cc(Cl)ccc43)COc3ccc(cc32)C(=O)NS1(=O)=O [Example 100108, (1S,3′R,6′R,7′R,11′S,12′R)-6-chloro-7′-hydroxy-11′,12′-dimethyl-7′-(2-oxo-2-(1-pyrrolidinyl)ethyl)-3,4-dihydro-2H,15′H-spiro[naphthalene-1,22′-[20]oxa[13]thia[1,14]diazatetracyclo [14.7.2.0~3,6~.0~19,24~]pentacosa[16,18,24]trien]-15′-one 13′,13′-dioxide] |  |  | 0.436 | IC50 [2, 6]: 358 nM
CO[C@@]1(CS(=O)(=O)C(C)C)/C=C/C[C@H](C)[C@@H](C)S(=O)(=O)NC(=O)c2ccc3c(c2)N(C[C@@H]2CC[C@H]21)C[C@@]1(CCCc2cc(Cl)ccc21)CO3 (stereo in doubt) [Example 100315, (1S,3′R,6′R,7′S,8′E,11′S,12′R)-6-chloro-7′-methoxy-11′,12′-dimethyl-7′-((2-propanylsulfonyl)methyl)-3,4-dihydro-2H,15′H-spiro[naphthalene-1,22′-[20]oxa[13]thia[1,14]diazatetracyclo [147.2.0~3,6~.0~19,24~]pentacosa[8,16,18,24]tetraen]-15′-one 13′,13′-dioxide] |  |  | 0.2 | IC50 [2, 6]: 153 nM
CO[C@@]1(CO)CCC[C@H](C)[C@@H](C)S(=O)(=O)NC(=O)c2ccc3c(c2)N(C[C@@H]2CC[C@H]21)C[C@@]1(CCCc2cc(Cl)ccc21)CO3 (stereo in doubt) [Example 100133, (1S,3′R,6′R,7′S,11′S,12′R)-6-chloro-7′-(hydroxymethyl)-7′-methoxy-11′,12′-dimethyl-3,4-dihydro-2H,15′H-spiro[naphthalene-1,22′-[20]oxa[13]thia[1,14]diazatetracyclo [14.7.2.0~3,6~.0~19,24~]pentacosa[16,18,24]rien]-15′-one 13′,13′-dioxide] |  |  | 0.885 | IC50 [2, 6]: 984 nM
C[C@@H]1[C@@H](C)C/C=C/[C@](O)(c2cccc(F)n2)[C@@H]2CC[C@H]2CN2C[C@@]3(CCCc4cc(Cl)ccc43)COc3ccc(cc32)C(=O)NS1(=O)=O [Example 100331, (1S,3′R,6′R,7′R,8′E,11′S,12′R)-6-chloro-7′-(6-fluoro-2-pyridinyl)-7′-hydroxy-11′,12′-dimethyl-3,4-dihydro-2H,15′H-spiro[naphthalene-1,22′-[20]oxa[13]thia[1,14]diazatetracyclo [14.7.2.0~3,6~.0~19,24~]pentacosa[8,16,18,24]tetraen]-15′-one 13′,13′-dioxide] |  |  | 0.192 | IC50 [2, 7]: 8260 nM
C[C@@H]1[C@@H](C)CCC[C@]2(CC(N3CCCC3)=NO2)[C@@H]2CC[C@H]2CN2C[C@@]3(CCCc4cc(Cl)ccc43)COc3ccc(cc32)C(=O)NS1(=O)=O [Example 100147, (1S,3′R,6′R,7′S,11′S,12′R)-6-chloro-11′,12′-dimethyl-3″-(1-pyrrolidinyl)-3,4-dihydro-2H,4″H,15′H-dispiro[naphthalene-1,22′-[20]oxa[13]thia[1,14]diazatetracyclo [14.7.2.0~3,6~.0~19,24~]pentacosa[16,18,24]triene-7′,5″-[1,2]oxazol]-15′-one 13′,13′-dioxide] |  |  | 0.305 | IC50 [2, 7]: 666 nM
CO[C@@]1(CC(=O)N(C)C2CCCC2)/C=C/C[C@H](C)[C@@H](C)S(=O)(=O)NC(=O)c2ccc3c(c2)N(C[C@@H]2CC[C@H]21)C[C@@]1(CCCc2cc(Cl)ccc21)CO3 [Example 100405, 2-((1S,3′R,6′R,7′S,8′E,11′S,12′R)-6-chloro-7′-methoxy-11′,12′-dimethyl-13′,13′-dioxido-15′-oxo-3,4-dihydro-2H-spiro[naphthalene-1,22′-[20]oxa[13]thia[1,14]diazatetracyclo [14.7.2.0~3,6~.0~19,24~]pentacosa[8,16,18,24]tetraen]-7′-yl)-N-cyclopentyl-N-methylacetamide] |  |  | 0.545 | IC50 [2, 7]: 1120 nM
COCC[C@@H]1[C@@H](C)C/C=C/[C@@](CN2C[C@@H](C)N(C)[C@@H](C)C2)(OC)[C@@H]2CC[C@H]2CN2C[C@@]3(CCCc4cc(Cl)ccc43)COc3ccc(cc32)C(=O)NS1(=O)=O [Example 191, (1S,3′R,6′R,7′R,8′E,11′S,12′R)-6-chloro-7′-methoxy-12′-(2-methoxyethyl)-11′-methyl-7′-(((3R,5S)-3,4,5-trimethyl-1-piperazinyl)methyl)-3,4-dihydro-2H,15′H-spiro[naphthalene-1,22′-[20]oxa[13]thia[1,14]diazatetracyclo [14.7.2.0~3,6~.0~19,24~]pentacosa[8,16,18,24]tetrae11]-15′-one 13′,13′-dioxide] | 0.096 | 42 |  | 
